Measurements published in patent US20070179154A1, “Coumarin derivatives, process for their production and use thereof” (Takeda Pharmaceutical Company Limited, priority 2002, published 2007).

Experiments:
[1] = target: T1, mouse abdominal macrophage microsome ACAT (Mus musculus, UniProt Q61263); assay: ACAT inhibitory activity (mouse abdominal macrophage microsome ACAT); type: biochemical; conditions: microsome ACAT from thioglycolate-stimulated C57BL6J mouse abdominal macrophage; 3H-oleyl-CoA, 37° C. for 20 minutes; read-out: Enzyme inhibition (IC50)
T1 construct: from tissue; host or cells: microsomes of thioglycolate-elicited peritoneal (abdominal) macrophages of C57BL6J mice, cultured 24 h with rabbit beta-VLDL
T1 sequence (Q61263 1-540): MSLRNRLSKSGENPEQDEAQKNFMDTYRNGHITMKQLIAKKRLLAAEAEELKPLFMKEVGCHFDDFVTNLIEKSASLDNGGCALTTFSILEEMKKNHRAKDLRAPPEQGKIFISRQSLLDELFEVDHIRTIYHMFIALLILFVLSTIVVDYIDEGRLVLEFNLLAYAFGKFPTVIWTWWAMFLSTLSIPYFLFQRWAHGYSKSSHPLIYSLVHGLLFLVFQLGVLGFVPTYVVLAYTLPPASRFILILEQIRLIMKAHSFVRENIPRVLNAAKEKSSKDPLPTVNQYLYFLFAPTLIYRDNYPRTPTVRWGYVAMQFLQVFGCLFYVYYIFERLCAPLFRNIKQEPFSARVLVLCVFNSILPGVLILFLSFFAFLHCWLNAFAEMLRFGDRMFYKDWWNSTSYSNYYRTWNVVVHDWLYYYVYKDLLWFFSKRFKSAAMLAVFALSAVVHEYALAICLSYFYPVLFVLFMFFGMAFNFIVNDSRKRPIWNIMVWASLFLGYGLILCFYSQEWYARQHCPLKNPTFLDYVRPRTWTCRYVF
Experimental: [Preparation of Mouse Abdominal Macrophage Microsome ACAT]
According to the method of Hakamada et al. (Experimental Medicine Suppliment vol. 14, No. 12, Circulation Research Protocol, p, 49-52, 1996), an abdominal macrophage was taken from a thioglycolate-stimulated C57BL6J mouse and cultured for 24 hours in a RPMI 1640-25 mM HEPES (pH7.0) medium containing rabbit β-very low density lipoprotein (β-VLDL, 150 μg cholesterol/ml) which had been prepared by the method of Ishii et al. (Ishii I et al., Arterioscler, Thromb, 12, 1139-1145, 1992). The abdominal macrophage was then collected by centrifugation (4° C., 1.000 rpm, 5 minutes) and sonicated. The sonicated liquid was centrifuged (4° C., 5000 rpm, 15 minutes) and then ultracentrifuged (4° C., 50, 000 rpm, 90 minutes) to prepare a microsome. The microsome thus obtained was used for measuring ACAT inhibitory activity of a test compound as mouse abdominal macrophage microsome ACAT.
[Method for Measuring ACAT Inhibitory Activity]
A mixture of a test compound, cholesterol-albumin-containing-Tris-HCL buffer (pH 7.5) and mouse abdominal macrophage microsome ACAT was pre-incubated at 37° C. for 10 minutes, and ^3H-oleyl-CoA was added to react at 37° C. for 20 minutes. A stopping solution composed of chloroform-methyl alcohol-distilled water (2:2:1 v/v) was added, and produced cholesteryl ester (CE) was extracted with shaking. The extract was subjected to silica gel thin chromatography (petroleum ether:diethyl ether:acetic acid=9:1:0.1 v/v), and the resulting ^3H-CE fraction was measured with a scintillation counter.
ACAT inhibiting rate was calculated from the proportion based on ACAT activity without a test compound, and an IC50 value was calculated as the concentration (μM) of a test compound showing ACAT inhibiting rate 50%. The results are shown in [Table 15].

Row | SMILES | IC50 [1] [nM] | melting point [°C]
1 | O=C(Cc1c(-c2cccc(C(=O)O)c2)c2cc(CN3CCN(c4ccccc4)CC3)c(Cl)cc2oc1=O)Nc1ccc(F)cc1C(F)(F)F [Example 112, 3-{7-chloro-3-(2-{[4-fluoro-2-(trifluoromethyl)phenyl]amino}-2-oxoethyl)-2-oxo-6-[(4-phenylpiperazin-1-yl)methyl]-2H-chromen-4-yl}benzoic acid] | 540 | 149 to 151
2 | O=C(O)CCc1cccc(-c2c(CC(=O)Nc3ccc(F)cc3C(F)(F)F)c(=O)oc3cc(Cl)c(CN4CCN(c5ccccc5)CC4)cc23)c1 [Example 114] | 550 | 226 to 228
3 | Cc1cc2c(-c3cccc(CCCC(=O)O)c3)c(CC(=O)Nc3ccc(F)cc3C(F)(F)F)c(=O)oc2cc1Cl [Example 78] | 430 | –
4 | O=C(O)/C=C/c1cccc(-c2c(CC(=O)Nc3ccc(F)cc3C(F)(F)F)c(=O)oc3cc(Cl)c(CN4CCN(c5ccccc5)CC4)cc23)c1 [Example 110, (2E)-3-(3-{7-chloro-3-(2-{[4-fluoro-2-(trifluoromethyl)phenyl]amino}-2-oxoethyl)-2-oxo-6-[(4-phenylpiperazin-1-yl)methyl]-2H-chromen-4-yl}phenyl)acrylic acid] | 540 | 238 to 240
5 | O=C(O)CCc1cccc(-c2c(CC(=O)Nc3ccc(Cl)cc3C(F)(F)F)c(=O)oc3cc(Cl)c(CN4CCN(c5ccccc5)CC4)cc23)c1 [Example 115] | 420 | 207 to 209
6 | O=C(Cc1c(-c2cccc(C(=O)O)c2)c2cc(CN3CCN(c4ccccc4)CC3)c(Cl)cc2oc1=O)Nc1ccc(Cl)cc1C(F)(F)F [Example 113, 3-{7-chloro-3-(2-{[4-chloro-2-(trifluoromethyl)phenyl]amino}-2-oxoethyl)-2-oxo-6-[(4-phenylpiperazin-1-yl)methyl]-2H-chromen-4-yl}benzoic acid] | 1220 | 151 to 153
7 | CCOC(=O)/C=C/c1cccc(-c2c(CC(=O)Nc3ccc(F)cc3C(F)(F)F)c(=O)oc3cc(C)c(Cl)cc23)c1 [Example 5, ethyl (2E)-3-[3-[6-chloro-3-[2-[[4-fluoro-2-(trifluoromethyl)phenyl]amino]-2-oxoethyl]-7-methyl-2-oxo-2H-chromen-4-yl]phenyl]-2-propenoate] | – | 206 to 209
8 | CCOC(=O)CCc1cccc(-c2c(CC(=O)Nc3ccccc3C(F)(F)F)c(=O)oc3cc(Cl)c(C)cc23)c1 [Example 9, ethyl 3-[3-[7-chloro-6-methyl-3-[2-[[2-(trifluoromethyl)phenyl]amino]-2-oxoethyl]-2-oxo-2H-chromen-4-yl]phenyl]propionate] | – | 115 to 117
9 | Cc1cc2c(-c3cccc(C(=O)NC(C)(C)C)c3)c(CC(=O)Nc3ccc(Cl)cc3C(F)(F)F)c(=O)oc2cc1Cl [Example 122] | – | 206 to 208
10 | O=C(O)/C=C/c1cccc(-c2c(CC(=O)Nc3ccc(Cl)cc3C(F)(F)F)c(=O)oc3cc(Cl)c(CN4CCN(c5ccccc5)CC4)cc23)c1 [Example 111, (2E)-3-(3-{7-chloro-3-(2-{[4-chloro-2-(trifluoromethyl)phenyl]amino}-2-oxoethyl)-2-oxo-6-[(4-phenylpiperazin-1-yl)methyl]-2H-chromen-4-yl}phenyl)acrylic acid] | 610 | 239 to 241
11 | Cc1cc2oc(=O)c(CC(=O)Nc3ccc(F)cc3C(F)(F)F)c(-c3cccc(CCC(=O)O)c3)c2cc1Cl [Example 21, 3-[3-[6-chloro-3-(2-[[4-fluoro-2-(trifluoromethyl)phenyl]amino]-2-oxoethyl)-7-methyl-2-oxo-2H-chromen-4-yl]phenyl]propionic acid] | – | 240 to 242
12 | Cc1cc2c(-c3cccc(-c4noc(=O)[nH]4)c3)c(CC(=O)Nc3ccc(F)cc3C(F)(F)F)c(=O)oc2cc1Cl [Example 99, 2-{7-chloro-6-methyl-2-oxo-4-[3-(5-oxo-4,5-dihydro-1,2,4-oxadiazol-3-yl)phenyl]-2H-chromen-3-yl}-N-[4-fluoro-2-(trifluoromethyl)phenyl]acetamide] | – | 285 to 287
